Article PMC3491834 (EMBO Molecular Medicine, 2012)

Target: InhA, NADH-dependent enoyl-[Acyl-Carrier-Protein] reductase (Mycobacterium tuberculosis, UniProt P9WGR1)
Test: enzyme turnover, NADH oxidation at […] nm
Format: biochemical

Chain of InhA, NADH-dependent enoyl-[Acyl-Carrier-Protein] reductase (P9WGR1 whole entry, looked up): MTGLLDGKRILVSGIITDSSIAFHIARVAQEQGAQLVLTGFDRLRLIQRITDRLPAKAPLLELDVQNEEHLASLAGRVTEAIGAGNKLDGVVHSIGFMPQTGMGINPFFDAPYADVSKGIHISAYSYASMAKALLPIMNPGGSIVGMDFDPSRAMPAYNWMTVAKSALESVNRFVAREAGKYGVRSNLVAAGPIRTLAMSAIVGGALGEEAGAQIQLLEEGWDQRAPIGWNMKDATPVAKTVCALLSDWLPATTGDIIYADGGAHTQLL

CCCCC/C=C/C(=O)SCCNC(=O)CCNC(=O)[C@H](O)C(C)(C)COP(=O)(O)OP(=O)(O)OC[C@H]1O[C@@H](n2cnc3c(N)ncnc32)[C@H](O)[C@@H]1OP(=O)(O)O [OcCoA, 2-trans-octenoyl-CoA]
enzyme turnover, NADH oxidation at 340 nm: All three enzymes were catalytically active and oxidized NADH in the presence of the substrate 2-trans-octenoyl-CoA (OcCoA)
